This note sets out measurements from US20100063077A1, “PYRIMIDINE DERIVATIVES FOR THE TREATMENT OF AMYLOID-RELATED DISEASES” (SENEXIS LIMITED, priority 2006, published 2010).

In assay [1] the target is T1, Aβ(1-42) (Homo sapiens, UniProt P05067).
T1 construct: dissolving Aβ(1-42) HCl salt in hexafluoroisopropanol (HFIP)
Briefly: Thioflavin T fluorimetric assay of Aβ(1-42) aggregation. The class given is biochemical. The following applies: 10 μM Aβ(1-42); read-out: IC50, inhibiting Aβ(1-42) aggregation (thioflavin-T fluorimetric assay). On the procedure:
Aβ(1-42) was prepared for amyloid aggregation and toxicity assays by dissolving Aβ(1-42) HCl salt in hexafluoroisopropanol (HFIP), with brief sonication and vortexing. This solution of the Aβ(1-42) peptide in HIT was stored at 4° C.@2 mM. When required, an aliquot of this stock solution was freeze-dried and dissolved in DMSO to 200 times the required final assay concentration (e.g. 2 mM for a final assay concentration of 10 μM). A 20 mM stock solution of each test compound was prepared in DMSO, and aliquots of these solutions were used to prepare further stock solutions of each test compound in DMSO, ranging in concentration from 3 μM up to 10 mM. These stock solutions were prepared for use as and when required and stored at −20° C. (maximum of 3 freeze-thaw cycles). The 20 mM parent stock solutions were stored frozen at −20° C. The daughter plate is sealed with silver seal and incubated at 37° C. for 24 and 48 hours for the Thioflavin T assay (LeVine and Scholten 1999). The activity of compounds in inhibiting 10 μM Aβ(1-42) aggregation was assessed by using a thioflavin-T fluorimetric assay. At each timepoint, a 50 or 100 μl aliquot is taken from each well of the daughter plate and dispensed into a black 96 well plate. Equal volume (50 or 100 μl) Thioflavin T [40 μM] (in Glycine buffer [50 mM] —NaOH pH 8.5) is added to each well. The plate was shaken and fluorescence was recorded using the top reader setting (10×1 msec), using excitation and emission filters of 440 (±15) and 485 (±10) nm, respectively. Fluorescence readings from equivalent experiments were averaged and % amyloid formation was determined as follows: [formula] Activity of compounds in inhibiting 10 μM Aβ(1-42) aggregation using thioflavin-T fluorimetric assay

For assay [2], the system named is SH SY5Y cells. Kind of assay: Cell viability assay for amyloid toxicity using MTT reduction. The class given is cell-based. Particulars: 10 μM Aβ(1-42), 24 h incubation, read-out: IC50, protecting SH SY5Y cells from a toxic insult of Aβ(1-42) (MTT reduction as measure of cell viability). Here is the method:
Aβ(1-42) was prepared for amyloid aggregation and toxicity assays by dissolving Aβ(1-42) HCl salt in hexafluoroisopropanol (HFIP), with brief sonication and vortexing. This solution of the Aβ(1-42) peptide in HIT was stored at 4° C.@2 mM. When required, an aliquot of this stock solution was freeze-dried and dissolved in DMSO to 200 times the required final assay concentration (e.g. 2 mM for a final assay concentration of 10 μM).
A 20 mM stock solution of each test compound was prepared in DMSO, and aliquots of these solutions were used to prepare further stock solutions of each test compound in DMSO, ranging in concentration from 3 μM up to 10 mM. These stock solutions were prepared for use as and when required and stored at −20° C. (maximum of 3 freeze-thaw cycles). The 20 mM parent stock solutions were stored frozen at −20° C.
The activity of compounds in protecting SH SY5Y cells from a toxic insult of 10 μM Aβ(1-42) was assessed by using inhibition of MTT reduction as a measure of cell viability. An aliquot (3 μl) of test compound [various concentrations] in DMSO is added to 294 μl of Opti-Mem (containing 2% FBS, 1% Pen/Strep, 1% L-Gln) {daughter plate}. The well is mixed thoroughly. Then an aliquot (3 μl) of Aβ(1-42) [2 mM] is added to the daughter plate wells and again mixed thoroughly. 50 μl is then aspirated and dispensed into wells containing 50 μl media+SH SY5Ycells (cells are also plated in Opti-Mein, at ˜30,000 cells/well/50 μl). Final concentrations of compound on cells range from [50 μM] to [˜15 nM] with a final concentration of Aβ(1-42) of [10 μM].
Cell plates are incubated for 24 h and then the MTT assay (Shearman, 1999). is performed. […] The plate was shaken and the absorbance was recorded at both 570 nm and 650 nm. ΔA values were calculated by subtracting absorbance at 650 nm from absorbance at 570 nm, to reduce non-specific background absorbance. ΔA values from equivalent experiments were averaged and % cell viability was determined as follows: […]
(Tetrazolium dyes change colour on reduction, which living cells bring about.)

Read-outs that look alike come from different tables or passages of the source.

T1 sequence (P05067 672-713): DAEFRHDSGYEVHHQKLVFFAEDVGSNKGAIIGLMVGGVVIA

With `Oc1cccc(Nc2cnc(Nc3cccc(O)c3)nc2)c1` [Example 2, 2,5-Bis-(3-hydroxyphenylamino)pyrimidine], the IC50 (usually the concentration that inhibits the measured activity by half) in assay [1] turned out to be 32 µM; in assay [2] (Homo sapiens, SH-SY5Y), 14 µM.

Regarding `Oc1cccc(Nc2ncc(Nc3cccc(C(F)(F)F)c3)cn2)c1` [Example 4, 2-(3-Hydroxyphenylamino)-5-[3-(trifluoromethyl)phenylamino]-pyrimidine], in assay [1], the 50% inhibitory concentration (IC50) worked out at 13 µM. Still for that read-out and setting: then `Oc1cccc(Nc2cnc(Nc3cccc(C(F)(F)F)c3)nc2)c1` [Example 8, 2-(3-Trifluoromethylphenylamino)-5-(3-hydroxyphenylamino)-pyrimidine], with 5 µM. `COc1cccc(Nc2cnc(Nc3ccc(Cl)c(Cl)c3)nc2)c1` [Example 10, 2-(3,4-Dichlorophenylamino)-5-(3-methoxyphenylamino)-pyrimidine]: the IC50 in assay [1] was found to be 8.5 µM. With `CN(c1ccccc1)c1cnc(Nc2cccc(O)c2)nc1` [Example 11, 2-(3-Hydroxyphenylamino)-5-[phenyl(methyl)amino]pyrimidine], the IC50 in assay [1] came to 22 µM; in assay [2] (Homo sapiens, SH-SY5Y), 30 µM. As for `Oc1cccc(Nc2ccc(Nc3cccc(O)c3)nn2)c1` [RS-0406, reference compound], in assay [2], the IC50 was found to be 40 µM.
